Measurements published in US8734775B2, “Chemokine derived peptides that bind with chemokine receptor CXCR3 and uses for chronic wound and angiogenesis inhibition treatments” (University of Pittsburgh, priority 2011, dated 2014).

Key:
HMEC-1 cells = experiment: Tube formation on growth factor reduced Matrigel; format: cell-based, human
Experimental: To determine whether the IP-10 peptide is able to inhibit tube formation, HMEC-1 cells were grown on growth factor reduced (“GFR”) Matrigel in the presence of VEGF165, IP-10 and/or IP-10dp and the cultures inspected and compared to asses the relative degree of tube formation according to the following procedure. GFR Matrigel 10 μl/well (μ-angiogenesis slide, Ibidi), was incubated for 15 minutes at 37° C. HMEC-1 cells (10,000 cells/well) were re-suspended in 1.0% FBS MDCB131 media containing VEGF (75 ng/ml), IP-10 (300 ng/ml) and IP-10dp (10 μM) and or anti-CXCR3 neutralizing antibody. Treated cells (1×10^4 cells/well) were added to 24-well culture plates coated with growth factor reduced Matrigel and incubated for 24 hours at 37° C. to allow tube formation.
The cells cultures were then imaged for tube formation using an Olympus IX70 microscope equipped with a Hammastu camera using MetaView™ software (Universal Imaging Corporation, Downington, Pa.). FIG. 4A is a grid of six labeled black and white photographs taken at this 24 hour point with 4× magnification showing the following representative cell cultures from upper left to lower right: a control culture having no treatment, a culture having treatment only with IP-10, a culture having treatment only with IP-10dp, a culture having treatment only with VEGF, a culture having treatment with combined VEGF and IP-10, and a culture having treatment with combined VEGF and IP-10dp.
Analysis of tube formation was preformed using MetaMorph (obtained from Universal Imaging Corporation, Downington, Pa.), and the results reported in the graph of FIG. 4 are shown as a percent of the no-treatment control. The data reported therein are of N=6 and normalized to no treatment (average±SEM), with *P<0.05. As shown by the graph, IP-10 peptide is able to inhibit tube formation. In particular, after incubation for 24 hours, the HMEC-1 cells cultures were able to form tubes in the presence or absence of VEGF165 (compare the photographic images in FIG. 4A).

[1] = test system: HMEC-1 cells treated with CXCR3 siRNA; experiment: Tube formation in CXCR3 siRNA-treated cells; format: cell-based, human; settings: CXCR3 knockdown; concentrations as in Experiment 3
Experimental: In the various experiments detailed below, unless otherwise noted, siRNA down regulation of CXCR3 was accomplished according to the following procedure. HMEC-1 cells were plated at 5.5×10^5 cells/60 mm dish and incubated overnight. The cells were 90-95% confluent. Cells were transfected with 4 μM siRNA (2 μM Sigma, 2 μM Santa Cruz) using Dharamacon #4 transfection reagent. The cells were incubated for 24 hours, and then placed in EGM-2MV media for 48 hours. The cells were then transfected again as indicated above. After 48 hours of incubation in EGM-2MV media the cells were then used for experimentation.
In the various experiments described below, to the extent not otherwise noted, CXCR3 siRNA transfection was preformed according to the procedure as previously described by Koh et al. (“Methods in Enzymology,” 2008, vol 443, p. 84), and summarized briefly as follows. HMEC-1 cells were plated in 6 well tissue culture plate at 4.0×10^5 cells/well in complete MCDB131 media and incubated overnight. The cells were ˜75% confluent. The media was removed and replaced with serum free Opti-Mem and incubated for 30 minutes. Dharmafect #4 was added to Opti-Mem to a final concentration of 2.5% (final volume […]) then incubated for 5 minutes at room temp. In parallel, CXCR3 siRNA was diluted in Opti-Mem to a final concentration of […] then incubated for 5 minutes at room temp. […]

[2] = test system: VEGF-induced new vessel formation; experiment: In vivo Matrigel plug assay, vessel development; design: species or system C57Bl/6 mice; settings: mice, day 10
Experimental: To determine whether IP-10dp is able to inhibit vessel growth, an in vivo Matrigel assay was used to establish that IP-10dp is able to inhibit angiogenesis. Vessel development and regression in vivo was determined generally according to the method previously described by Bodnar et al. (see Bodnar et al., 2006, supra). In brief, for vessel development GFR Matrigel supplemented with VEGF165 in the absence or presence of IP-10 or IP-10dp was injected into the groin area of the mice. Ten days post inoculation; the Matrigel plug was removed and stained with Masson Trichrome to visualize endothelial infiltration.
Specifically, Matrigel with VEGF was injected into the groin area near the dorsal midline of 12-month-old C57Bl/6 female mice. In addition to Matrigel plus VEGF, the mice were injected with saline (control), 10 μg of IP-10 or 100 μg of IP-10dp. Two injections were made in each mouse in separate dorsal areas, one control injection and the other with the designated experimental treatment. On day 10, the Matrigel plugs were removed and either paraffin embedded or flash frozen. They were prepared and examined histologically for new vessel development using Masson's trichrome staining. […] This particular result is taken as being indicative that IP-10dp has the ability to inhibit VEGF-induced new vessel formation.

For “PESKAIKNLLKAVSKEMSKRSP (IP-10dp; listed as Homo sapiens) [synthetic fragment of IP-10 comprising residues 78-98, the C-terminal α-helical domain]”, the “tubes formed in the presence of VEGF165” value (HMEC-1 cells; IP-10dp 10 μM plus VEGF 75 ng/ml, 24 hours) was “significant reduction”, the “tubes formed compared to control” value (HMEC-1 cells; IP-10dp 10 μM, no VEGF, 24 hours) was “significant reduction in tubes formed” and the “inhibition of tube formation compared with full length IP-10” value (HMEC-1 cells; presence and absence of VEGF, IP-10dp 10 μM vs IP-10 300 ng/ml) was “slightly better”. The “formation of tubes in CXCR3 siRNA-treated cells” value [1] was “did not show a significant difference”, the “inhibition of VEGF-induced angiogenesis in Matrigel plug” value ([2]; 10 μg IP-10 or 100 μg IP-10dp with Matrigel plus VEGF, Masson's trichrome) was “inhibited this angiogenesis” and the “inhibition of VEGF-induced new vessel formation compared with IP-10” value ([2]; 100 μg IP-10dp vs 10 μg IP-10) was “more effective than IP-10”.
